The results in this text go back to patent US7875607B2, “7,8-bicycloakyl-chroman derivatives” (Ampere Life Sciences, Inc., priority 2004, dated 2011).

Bounds are passed on as bounds.

Holding throughout (assay type): cell-based
The test system of assay [1] is ELAM (E-selectin) expression in endothelial cells. Put plainly: Cell-ELAM assay. The settings on record: 10 μg/ml LPS and 100 pg/ml IL-1β, 6 hours. The text has this: In vitro cell-based assays for inflammation are well known in the art, for example e-selectin (also named Endothelial Leukocyte Adhesion Molecule or ELAM) or C-reactive protein (CRP). The ELAM assay measures in vitro activity of the test compounds in reducing expression of ELAM in activated endothelial cells. Briefly, endothelial cells are […] by adding known activators such as lipopolysaccharides, TNF or IL-1, alone or in some combination. Activated cells produce ELAM, which can be measured using, for example, an E-selectin monoclonal antibody-based ELISA assay. Similarly the CRP assay measures in vitro activity of test compounds in reducing expression of CRP in Human Hep3B epithelial cells. The activated cells produce CRP, which can be measured with a CRP ELISA assay.
Endothelial-Leukocyte Adhesion Molecule (ELAM), also known as E-selectin, was expressed on the surface of endothelial cells. In this assay, lipopolysaccharide (LPS) and IL-1β were used to stimulate the expression of ELAM; test agents were tested for their abilities to reduce this expression, in accordance with studies showing that reduction of leukocyte adhesion to endothelial cell surface was associated with decreased cellular damage (e.g., Takada, M., Et al., Transplantation 64: 1520-25, 1997; Steinberg, J. B., et al., J. Heart Lung Trans. 13:306-313, 1994).
Endothelial cells may be selected from any of a number of sources and cultured according to methods known in the art; including, for example, coronary artery endothelial cells, human brain microvascular endothelial cells (HBMEC; Hess, D. C., et al., Neurosci. Lett. 213(1): 37-40, 1996), or lung endothelial cells. Cells were conveniently cultured in 96-well plates. Cells were stimulated by adding a solution to each well containing 10 μg/ml LPS and 100 pg/ml IL-1β for 6 hours in the presence of test agent (specific concentrations and time may be adjusted depending on the cell type) Treatment buffer was removed and replaced with pre-warmed Fixing Solution® (100 μl/well) for 25 minutes at room temperature. Cells were then washed 3×, then incubated with Blocking Buffer (PBS+2% FBS) for 25 minutes at room temperature. Blocking Buffer containing Monoclonal E-Selectin Antibody (1:750, Sigma Catalog # S-9555) was added to each well. Plates were sealed and stored at 4° overnight. Plates were washed 4× with 160 μL Blocking Buffer per well. Second Antibody-HRP diluted 1:5000 in Blocking Buffer was then added (100 μL/well), and plates were incubated at room temperature (protected from light) for two hours. Plates were then washed 4× with Blocking Buffer before addition of 100 μL of ABTS Substrate solution at room temperature (Zymed, Catalog # 00-2024). Wells were allowed to develop for 35 minutes, before measurement at 402 nm in a Fluoroskan® Reader with shake program for 10 seconds. Positive results were recorded as a decrease in ELAM concentration in tested wells, as compared to control wells.

In assay [2] the test system is LTB4 release from MPRO cell line. Put plainly: LTB4-cell assay. Particulars: Mus musculus; differentiated MPRO cells, 1 μM A23187, 1 hour; read-out: EC50, inhibition of LTB4. The gist of the method:
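Mouse MPRO cells differentiated 72 hours with 10 μM all-trans retinoic acid, then stimulated 1 hour at 37° C with 1 μM A23187 plus compound (5 concentrations from 10 μM, quadruplicate). Supernatant LTB4 measured by competitive EIA; unstimulated cells as negative control.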

In assay [3] the test system is dopaminergic neuronal cell line. Put plainly: High glutamate-induced oxidative stress assay (HGOS). The settings on record: Mus musculus; 30 mM glutamate, 16 hrs; read-out: EC50, protection against HGOS cell injury and cell death. The essentials: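 Mouse dopaminergic cells (passage ≤ p11) were grown 72 h at 33 °C, washed in HBSS, then exposed 16 h at 37 °C to compounds in DMEM-No Glu with 1 mM glucose and 30 mM glutamate. Surviving cells were stained 30 min with 5 μM Cell Tracker Green and fluorescence read at 485/538 nm.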

Turning to `CC1(C)CCc2cc(O)c3c(c2O1)C1CCC3CC1` [2,2-Dimethyl-3,4,7,8,9,10-hexahydro-7,10-ethano-2H-benzo[h]chromen-6-ol], the EC50 (commonly the concentration giving half of the maximal effect) in assay [1] is not above 30 µM; in assay [2], not above 5 µM.

In the case of `CC(C)=CCc1c(O)c2c(c3c1CCC(C)(C)O3)C1CCC2C1` (centres unmarked) [2,2-Dimethyl-5-(3-methyl-but-2-enyl)-3,4,7,8,9,10-hexahydro-7,10-methano-2H-benzo[h]chromen-6-ol], the values for the EC50 in assay [3] and in assay [1] were not above 1 µM and not above 30 µM, respectively.

For the compound `CC(C)CCc1c(O)c2c(c3c1CCC(C)(C)O3)C1CCC2C1` (centres unmarked) [2,2-Dimethyl-5-(3-methyl-butyl)-3,4,7,8,9,10-hexahydro-7,10-methano-2H-benzo[h]chromen-6-ol], the half-maximal effective concentration (EC50) in assay [3] is not above 1 µM; in assay [1] it was not above 30 µM.

As for `CC1(C)C=Cc2cc(O)c3c(c2O1)C1CCC3CC1` [2,2-Dimethyl-7,8,9,10-tetrahydro-7,10-ethano-2H-benzo[h]chromen-6-ol], the figures for the EC50 in assay [3] and in assay [2] were not above 1 µM and not above 5 µM, respectively.

As to `CC1(CCCCl)CCc2cc(O)c3c(c2O1)C1CCC3C1` (centres unmarked) [2-(3-Chloro-propyl)-2-methyl-3,4,7,8,9,10-hexahydro-7,10-methano-2H-benzo[h]chromen-6-ol], the values for the half-maximal effective concentration (EC50) in assay [3], in assay [1] and in assay [2] were not above 1 µM, not above 30 µM and not above 5 µM, respectively.

`CC(C)CSCCCC1(C)CCc2cc(O)c3c(c2O1)C1CCC3C1` (centres unmarked) [2-(3-isobutylsulfanyl-propyl)-2-methyl-3,4,7,8,9,10-hexahydro-7,10-methano-2H-benzo[h]chromen-6-ol]: the EC50 in assay [3] was not above 1 µM; in assay [1], not above 30 µM; in assay [2] it was not above 5 µM.

In the case of `CC1(CCCSc2nccs2)CCc2cc(O)c3c(c2O1)C1CCC3C1` (centres unmarked) [2-Methyl-2-[3-(thiazol-2-ylsulfanyl)-propyl]-3,4,7,8,9,10-hexahydro-7,10-methano-2H-benzo[h]chromen-6-ol], the results for the EC50 in assay [3], in assay [1] and in assay [2] were not above 1 µM, not above 30 µM and not above 5 µM, respectively.
